Source: ChEMBL document CHEMBL5370608, “Selective and Bioavailable HDAC6 2-(Difluoromethyl)-1,3,4-oxadiazole Substrate Inhibitors and Modeling of Their Bioactivation Mechanism” (J Med Chem, 2023)

Tests used:
Histone deacetylase 3 = Histone deacetylase 3 (Homo sapiens, UniProt O15379); test: Inhibition of human recombinant HDAC3 incubated for 10 mins by Spectrophotometric analysis
[1] = Metabolic stability in human liver microsomes assessed as disappearance of parent compound; type: ADME, Microsome; settings: read-out: CLH
Histone deacetylase 8 = target: T1, Histone deacetylase 8 (Homo sapiens, UniProt Q9BY41); test: Inhibition of human recombinant HDAC8 incubated for 60 mins by fluorimetry analysis
T1 sequence (Q9BY41 whole entry): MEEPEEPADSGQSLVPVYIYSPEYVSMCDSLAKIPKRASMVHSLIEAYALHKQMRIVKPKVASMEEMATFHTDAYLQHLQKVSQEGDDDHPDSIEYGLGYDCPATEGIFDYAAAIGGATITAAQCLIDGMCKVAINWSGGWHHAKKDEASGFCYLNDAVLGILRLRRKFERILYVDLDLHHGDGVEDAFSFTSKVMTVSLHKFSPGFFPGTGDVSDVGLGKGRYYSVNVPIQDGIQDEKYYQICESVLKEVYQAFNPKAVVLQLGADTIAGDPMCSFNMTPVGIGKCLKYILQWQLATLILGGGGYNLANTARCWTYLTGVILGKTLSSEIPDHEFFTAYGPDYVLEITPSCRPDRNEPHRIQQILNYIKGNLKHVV

[2] = target: T2, Polyamine deacetylase HDAC10 (Homo sapiens, UniProt Q969S8); test: Inhibition of human recombinant HDAC10 incubated for 45 mins by fluorimetry analysis
T2 sequence (Q969S8 whole entry): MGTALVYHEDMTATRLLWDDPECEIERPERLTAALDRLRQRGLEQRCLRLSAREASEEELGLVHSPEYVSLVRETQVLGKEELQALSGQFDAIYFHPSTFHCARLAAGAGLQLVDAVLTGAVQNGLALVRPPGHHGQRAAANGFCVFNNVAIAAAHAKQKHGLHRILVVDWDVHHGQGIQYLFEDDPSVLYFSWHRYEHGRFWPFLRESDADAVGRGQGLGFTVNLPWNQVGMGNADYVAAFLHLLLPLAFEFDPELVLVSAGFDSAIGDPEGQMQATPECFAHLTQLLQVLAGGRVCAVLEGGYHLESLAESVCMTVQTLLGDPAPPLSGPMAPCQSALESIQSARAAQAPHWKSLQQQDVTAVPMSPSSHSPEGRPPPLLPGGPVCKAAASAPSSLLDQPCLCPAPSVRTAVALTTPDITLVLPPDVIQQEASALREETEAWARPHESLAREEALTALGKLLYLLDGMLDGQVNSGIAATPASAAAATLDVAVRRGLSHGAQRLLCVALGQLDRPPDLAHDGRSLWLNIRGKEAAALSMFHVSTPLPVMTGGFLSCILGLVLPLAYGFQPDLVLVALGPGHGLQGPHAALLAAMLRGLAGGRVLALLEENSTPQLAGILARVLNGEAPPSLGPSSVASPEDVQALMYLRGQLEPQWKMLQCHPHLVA

[3] = target: T3, Protein deacetylase HDAC6 (Homo sapiens, UniProt Q9UBN7); test: Inhibition of full length TEV-cleavable N-terminal His6-tagged human recombinant HDAC6 using Ac-RGK (Ac)-AMC as substrate preincubated for 20 hrs followed by substrate addition and measured after 3 hrs by microplate reader analysis
T3 sequence (Q9UBN7 whole entry): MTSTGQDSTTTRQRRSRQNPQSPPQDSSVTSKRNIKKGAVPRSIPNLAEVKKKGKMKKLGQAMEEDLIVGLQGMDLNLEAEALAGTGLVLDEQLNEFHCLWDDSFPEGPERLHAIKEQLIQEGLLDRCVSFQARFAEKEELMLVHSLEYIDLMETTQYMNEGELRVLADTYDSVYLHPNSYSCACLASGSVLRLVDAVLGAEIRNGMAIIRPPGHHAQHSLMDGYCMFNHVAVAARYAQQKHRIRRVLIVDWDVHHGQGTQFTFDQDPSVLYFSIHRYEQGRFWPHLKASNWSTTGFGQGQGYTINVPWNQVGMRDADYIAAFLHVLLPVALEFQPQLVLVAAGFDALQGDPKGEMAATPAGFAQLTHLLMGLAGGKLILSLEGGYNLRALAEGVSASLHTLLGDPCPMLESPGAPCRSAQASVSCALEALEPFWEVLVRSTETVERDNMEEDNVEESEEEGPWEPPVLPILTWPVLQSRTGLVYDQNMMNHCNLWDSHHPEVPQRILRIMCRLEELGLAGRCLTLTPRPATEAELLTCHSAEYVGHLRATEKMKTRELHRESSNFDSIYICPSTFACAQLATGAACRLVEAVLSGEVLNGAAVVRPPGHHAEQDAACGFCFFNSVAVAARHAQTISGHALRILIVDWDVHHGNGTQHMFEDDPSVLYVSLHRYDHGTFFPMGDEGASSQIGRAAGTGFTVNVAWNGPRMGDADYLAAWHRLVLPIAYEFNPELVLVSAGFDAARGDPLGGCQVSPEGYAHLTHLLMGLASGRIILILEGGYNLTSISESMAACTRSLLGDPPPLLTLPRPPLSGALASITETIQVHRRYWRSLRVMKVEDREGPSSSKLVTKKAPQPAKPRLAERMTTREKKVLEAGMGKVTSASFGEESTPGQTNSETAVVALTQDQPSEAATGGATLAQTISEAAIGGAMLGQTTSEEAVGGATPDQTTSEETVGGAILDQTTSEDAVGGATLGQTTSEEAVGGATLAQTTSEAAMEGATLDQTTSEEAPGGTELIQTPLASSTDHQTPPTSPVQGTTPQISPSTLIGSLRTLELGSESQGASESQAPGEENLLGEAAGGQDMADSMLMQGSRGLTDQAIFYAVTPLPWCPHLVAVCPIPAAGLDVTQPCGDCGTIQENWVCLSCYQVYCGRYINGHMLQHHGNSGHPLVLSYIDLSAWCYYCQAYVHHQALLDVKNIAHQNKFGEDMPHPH

Histone deacetylase 1 = Histone deacetylase 1 (Homo sapiens, UniProt Q13547); test: Inhibition of human recombinant HDAC1 incubated for 15 mins by fluorimetry analysis
Histone deacetylase 4 = Histone deacetylase 4 (Homo sapiens, UniProt P56524); test: Inhibition of human recombinant HDAC4 incubated for 30 mins by fluorimetry analysis
[4] = Chemical stability of compound in sodium phosphate buffer at pH 7.4 assessed as half life by UPLC analysis; type: physicochemical
[5] = target: T3, Protein deacetylase HDAC6; test: Stability of the compound assessed as full-length human HDAC6 mediated-drug degradation measured after 96 hrs by time-resolved mass spectrometry analysis; type: ADME
THP-1 = test: Cytotoxicity against human THP-1 cells assessed as reduction in cell viability by alamar blue staining based assay; type: functional
[6] = Chemical stability of compound in sodium carbonate buffer at pH 10 assessed as half life by UPLC analysis; type: physicochemical
[7] = Metabolic stability in rat hepatocytes assessed as intrinsic clearance at 1 uM measured per 10^6 cells incubated at 2 to 60 mins by LC-MS/MS analysis; type: ADME, cell-based, Hepatocyte; settings: time 2-60 min, read-out: CLH
[8] = Metabolic stability in human hepatocytes assessed as intrinsic clearance at 1 uM measured per 10^6 cells incubated at 2 to 60 mins by LC-MS/MS analysis; type: ADME, cell-based, Hepatocyte; settings: time 2-60 min, read-out: CLH
[9] = Plasma protein binding in human assessed as unbound fraction; type: ADME, cell-free

Sequence of Histone deacetylase 1 (Q13547 whole entry): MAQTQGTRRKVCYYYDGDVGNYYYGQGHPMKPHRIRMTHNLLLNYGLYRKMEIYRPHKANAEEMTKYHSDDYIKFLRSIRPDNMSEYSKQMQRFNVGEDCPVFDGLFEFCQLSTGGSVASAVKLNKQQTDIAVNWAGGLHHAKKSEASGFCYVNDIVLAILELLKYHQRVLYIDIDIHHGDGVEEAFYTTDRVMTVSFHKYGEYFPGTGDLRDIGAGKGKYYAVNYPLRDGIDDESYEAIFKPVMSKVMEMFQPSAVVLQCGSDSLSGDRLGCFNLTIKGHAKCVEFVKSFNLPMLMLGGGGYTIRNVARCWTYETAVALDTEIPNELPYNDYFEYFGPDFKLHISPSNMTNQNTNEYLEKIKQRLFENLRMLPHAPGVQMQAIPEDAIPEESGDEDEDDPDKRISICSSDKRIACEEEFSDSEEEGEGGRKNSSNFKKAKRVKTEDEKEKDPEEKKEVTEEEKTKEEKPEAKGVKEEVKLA
Sequence of Histone deacetylase 4 (P56524 whole entry): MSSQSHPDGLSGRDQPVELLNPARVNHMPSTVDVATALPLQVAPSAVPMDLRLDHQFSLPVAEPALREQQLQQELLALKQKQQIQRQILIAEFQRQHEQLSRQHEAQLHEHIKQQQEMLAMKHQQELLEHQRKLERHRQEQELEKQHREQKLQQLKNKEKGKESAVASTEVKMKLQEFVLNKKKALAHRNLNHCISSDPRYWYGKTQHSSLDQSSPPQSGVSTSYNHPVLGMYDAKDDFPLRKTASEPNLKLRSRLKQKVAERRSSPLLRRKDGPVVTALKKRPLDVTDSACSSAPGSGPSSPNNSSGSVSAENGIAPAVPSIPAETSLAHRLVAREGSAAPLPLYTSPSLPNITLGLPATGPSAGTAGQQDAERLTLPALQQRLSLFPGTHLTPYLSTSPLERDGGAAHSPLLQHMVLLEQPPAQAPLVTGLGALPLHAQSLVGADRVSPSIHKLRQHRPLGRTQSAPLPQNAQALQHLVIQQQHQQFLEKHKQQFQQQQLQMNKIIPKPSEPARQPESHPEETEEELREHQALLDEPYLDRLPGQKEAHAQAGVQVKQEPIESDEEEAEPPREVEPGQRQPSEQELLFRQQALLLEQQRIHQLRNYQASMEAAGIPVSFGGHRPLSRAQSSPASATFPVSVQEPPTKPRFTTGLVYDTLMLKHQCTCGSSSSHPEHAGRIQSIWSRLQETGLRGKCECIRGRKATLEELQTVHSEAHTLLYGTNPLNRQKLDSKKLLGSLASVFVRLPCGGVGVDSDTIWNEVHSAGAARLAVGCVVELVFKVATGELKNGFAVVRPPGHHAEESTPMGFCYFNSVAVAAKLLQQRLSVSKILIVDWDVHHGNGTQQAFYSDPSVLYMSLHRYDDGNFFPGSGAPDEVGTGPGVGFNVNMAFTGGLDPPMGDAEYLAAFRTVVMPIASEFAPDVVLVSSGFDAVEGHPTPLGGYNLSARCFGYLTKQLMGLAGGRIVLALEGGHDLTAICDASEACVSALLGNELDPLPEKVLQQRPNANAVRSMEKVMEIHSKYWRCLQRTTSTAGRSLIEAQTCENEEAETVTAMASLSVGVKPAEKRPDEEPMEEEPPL
Sequence of Histone deacetylase 3 (O15379 whole entry): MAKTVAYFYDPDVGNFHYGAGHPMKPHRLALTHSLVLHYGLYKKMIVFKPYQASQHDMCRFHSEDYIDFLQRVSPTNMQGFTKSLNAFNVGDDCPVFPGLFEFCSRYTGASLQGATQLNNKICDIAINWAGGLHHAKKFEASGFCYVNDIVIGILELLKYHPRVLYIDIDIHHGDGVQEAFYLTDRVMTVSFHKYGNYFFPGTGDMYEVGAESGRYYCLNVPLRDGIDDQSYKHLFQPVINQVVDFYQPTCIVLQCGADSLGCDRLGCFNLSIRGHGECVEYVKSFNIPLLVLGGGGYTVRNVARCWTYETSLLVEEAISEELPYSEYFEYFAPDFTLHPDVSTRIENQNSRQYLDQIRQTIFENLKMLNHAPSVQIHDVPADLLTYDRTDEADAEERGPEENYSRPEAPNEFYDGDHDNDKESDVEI

Compound | IC50 (Histone deacetylase 3) [µM] | microsomal CLint [1] [µL/min/mg] | IC50 (Histone deacetylase 8) [µM] | IC50 [2] [µM] | IC50 [3] [µM] | IC50 (Histone deacetylase 1) [µM] | IC50 (Histone deacetylase 4) [µM] | half-life [4] [h] | Stability [5] | IC50 (THP-1; read-out: IC50) [µM] | IC50 (THP-1; read-out: pIC50 (converted)) [µM] | half-life [6] [h] | hepatocyte CLint at 1 µM [7] [µL/min/1e6 cells] | hepatocyte CLint at 1 µM [8] [µL/min/1e6 cells] | fraction unbound [9]
COc1ccccc1-c1nnn(Cc2ccc(-c3nnc(C(F)F)o3)cn2)n1 | > 100 | < 3 | > 100 | > 100 | 0.00158 | > 100 | > 100 |  |  |  |  |  |  |  | 
CS(=O)(=O)NCC(Nc1ncc(-c2nnc(C(F)F)o2)cn1)c1ccc(OC(F)(F)F)cc1 (stereo unspecified) | > 100 | < 3 | > 100 | > 100 | 0.00158 | > 100 | 14 | 221 | Unstable | 126 | 126 | 7.2 |  |  | 
O=C(NO)c1cnc(NC2(c3ccccc3)CCC(F)(F)CC2)nc1 | 87 | < 3 | 16 | 18 | 0.00398 | 17 | 12 |  | Stable | 94 | 100 |  | 51 | 5.1 | 0.23
FC(F)c1nnc(-c2ccc(Cn3nnc(-c4ccccn4)n3)nc2)o1 | > 100 | < 3 | > 100 | > 100 | 0.001 | > 100 | > 100 | 84 | Unstable |  | > 251 | < 13.7 | < 1 | < 1 | 0.13
